Measurements published in patent US9618524B2, “Method, composition, isolation and identification of a plaque particle and related biomarker” (Plaxgen Inc., priority 2012, dated 2017).

Assays:
Test in all cases: Mass spectroscopy proteomics, semi-quantitative binding affinity of serum proteins (plaqueproteome, Table 2)
Details in all cases: higher number = stronger affinity
[1] = biological target: T1, Abeta-42 plaque particles (Homo sapiens, UniProt P05067)
T1 construct: Abeta 1-42
Summary of the method: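 AD patient serum or plasma (50% in PBS) was incubated with Abeta-42 aggregates (30 μg) for 1 h at 37 °C, then stained with Thioflavin S for 30 min. Labeled particles were FACS-sorted, trypsin/Lys-C digested overnight and analyzed by MS/MS. Sequest searched human UniProt; Scaffold/Protein Prophet validated the identifications.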

[2] = test system: High Density cholesterol (Chl Large) plaque particles; set-up: species or system human
Summary of the method: (§1)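 Read-out is MS/MS protein identification (Sequest, strict trypsin, 20 ppm parent tolerance; Scaffold probabilities) of serum proteins bound to flow-sorted cholesterol plaque particles. These particles formed when 50% atherosclerotic serum was incubated with 30 μg cholesterol aggregates for 1 hr at 37° C.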

[3] = test system: Low density cholesterol (Chl small) plaque particles; set-up: species or system human
Summary of the method: as §1

[4] = biological target: T2, alpha-synuclein plaque particles (Homo sapiens, UniProt P37840)
T2 construct: 140 amino acids polypeptide
Summary of the method: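 AD-subject plasma or serum (800 μL of 50%) mixed with 30 μg preformed alpha-synuclein aggregates for 1 h at 37 °C; Thioflavin S-positive particles isolated by flow sorting. After reduction, acrylamide alkylation and overnight tryptic digestion, serum proteins identified by MS/MS with Sequest and Scaffold.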

Tau plaque particles = test system: Tau plaque particles; set-up: species or system human
Summary of the method: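 Synthetic Tau-74 and Tau-275 peptides (1 mg/mL PBS, 37° C, 2 h) aggregated; 30 μg aggregates incubated with 50% serum/plasma 1 h at 37° C, stained with Thioflavin S, and plaque particles sorted by flow cytometry. Bound proteins trypsin-digested and identified by MS/MS against human UniProt.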

Row | Substance | Semi-quantitative analysis of proteins binding to different plaque particles: Abeta-42 [1] | Semi-quantitative analysis of proteins binding to different plaque particles: Chl Large [2] | Semi-quantitative analysis of proteins binding to different plaque particles: Chl small [3] | Semi-quantitative analysis of proteins binding to different plaque particles: Synuclein [4] | Semi-quantitative analysis of proteins binding to different plaque particles: Tau (Tau plaque particles)
1 | Filaggrin | 2 | 0 | 0 | 0 | 0
2 | Filaggrin-2 | 4 | 0 | 0 | 0 | 0
3 | Gelsolin | 2 | 8 | 9 | 6 | 9
4 | Glyceraldehyde-3-phosphate dehydrogenase | 5 | 0 | 0 | 0 | 0
5 | Haptoglobin | 23 | 27 | 29 | 22 | 24
6 | Hemoglobin subunit alpha | 2 | 4 | 5 | 5 | 5
7 | Hemoglobin subunit delta | 0 | 0 | 0 | 2 | 0
8 | Hemopexin | 11 | 22 | 16 | 18 | 16
9 | Histone H1.2 | 2 | 0 | 0 | 0 | 0
10 | Hornerin | 2 | 0 | 0 | 0 | 1
11 | Ig alpha-1 chain C region | 9 | 10 | 8 | 11 | 12
12 | Ig gamma-1 chain C region | 12 | 41 | 51 | 44 | 27
13 | Ig gamma-4 chain C region | 7 | 7 | 11 | 8 | 11
14 | Ig heavy chain V-III region BRO | 7 | 5 | 6 | 4 | 5
15 | Ig heavy chain V-III region BUT | 2 | 1 | 1 | 1 | 1
16 | Ig heavy chain V-III region Gal | 2 | 0 | 1 | 2 | 4
17 | Ig heavy chain V-III region JON | 0 | 0 | 1 | 1 | 1
18 | Ig heavy chain V-III region NIE | 0 | 1 | 1 | 1 | 0
19 | Ig heavy chain V-III region TEI | 5 | 4 | 5 | 3 | 4
20 | Ig heavy chain V-III region TIL | 5 | 0 | 2 | 0 | 2
21 | Ig heavy chain V-III region TUR | 4 | 2 | 3 | 1 | 0
22 | Ig heavy chain V-III region VH26 | 7 | 2 | 3 | 1 | 3
23 | Ig heavy chain V-III region WA | 4 | 1 | 2 | 0 | 1
24 | Ig kappa chain C region | 11 | 17 | 21 | 15 | 15
25 | Ig kappa chain V-I region AU | 2 | 1 | 1 | 0 | 0
26 | Ig kappa chain V-I region CAR | 5 | 1 | 1 | 1 | 1
27 | Ig kappa chain V-I region DE | 5 | 5 | 1 | 3 | 2
